Measured values reported in patent US11993591B2, “Chromen-4-one derivatives for the treatment and prophylaxis of hepatitis B virus disease” (Hoffmann-La Roche Inc., priority 2018, dated 2024).

Tested on: HBV cccDNA (HBeAg level) in HepDES19 cells
Assay: Engineered HepDES19 primary screen assay (HBeAg as surrogate marker for cccDNA)
Format: cell-based
Conditions: Hepatitis B virus, HepDES19, 120 h
Text: The assay was employed to screen for novel cccDNA inhibitors. HepDES19 is a cccDNA-producing cell line. In this cell line, HBeAg in the cell culture supernatant as surrogate marker, as HBeAg production depends on cccDNA level and activity. HepDES19 is an engineered cell line which contains a 1.1 unit length HBV genome, and pgRNA transcription from the transgene is controlled by Tetracycline (Tet). In the absence of Tet, pgRNA transcription will be induced, but HBV e antigen (HBeAg) could not be produced from this pgRNA due to very short leader sequence before the HBeAg start codon and the start codon is disrupted. Only after cccDNA is formed, the missing leader sequence and start codon mutation would be restored from the 3′-terminal redundancy of pgRNA, and then HBeAg could be synthesized. Therefore, HBeAg could be used as a surrogate marker for cccDNA (Zhou, T. et al., Antiviral Res. (2006), 72(2), 116-124; Guo, H. et al., J. Virol. (2007), 81(22), 12472-12484).
HepDES19 cells were seeded at 2×10^6 cells per T150 flask and cultured with the culture medium (Dulbecco's Modified Eagle Medium: Nutrient Mixture F-12 [DMEM-F12, Gibco Cat. 11320-82], 10% Fetal Bovine Serum [FBS, Clontech Cat. 631101], 0.1 mM Non-Essential Amino Acids Solution [NEAA, Gibco Cat. 11140-050], 50 μg/mL Penicillin-Streptomycin [PS, Invitrogen Cat. 15140-163], 500 μg/mL Geneticin [G418, Invitrogen Cat. 10131-027]) containing 3 μg/mL Tet (Sigma, Cat. 87128) for 5 days. Cells were then seeded at 4×10^6 cells per T150 in the same culture medium as described above in the absence of Tet for 8 days. Cells were then harvested and frozen at density of 2×10^6 cells per mL. For compound testing, the frozen cells were thawed and seeded into 96-well plates at a density of 6×10^4 cells per well. At 24 hours after seeding, half log serial dilutions of compounds made with Dimethyl sulfoxide (DMSO, Sigma, Cat. D2650) were further diluted with the same culture medium as described above before they were added to the cells to reach desired final compound concentrations and 1% DMSO concentration. Plates were then incubated at 37° C. for another 5 days before measurement of HBeAg level and cell viability. Intracellular HBeAg level were measured with enzyme-linked immunosorbent assay (ELISA) kit (Shanghai Kehua Diagnostic Medical Products Co., Ltd). Cell viability was assessed using Cell Counting Kit-8 (Donjindo, Cat. CK04-20). IC50 values were derived from the dose-response curve using 4 parameter logistic curve fit method.
The compounds of the present invention were tested for their capacity to inhibit extracellular HBeAg level as described herein.

Row | SMILES | IC50 [µM]
1 | Cc1cc(O)ccc1NC(=O)c1cc(=O)c2cccc(Cl)c2o1 [Example 30, 8-chloro-N-(4-hydroxy-2-methylphenyl)-4-oxo-chromene-2-carboxamide] | 25.9
2 | O=C(O)C1CC(OCCOc2ccc(CNc3cc(=O)c4cccc(Cl)c4o3)cc2)C1 (centres unmarked) [Example 60, 3-(2-(4-(((8-chloro-4-oxo-chromen-2-yl)amino)methyl)phenoxy)ethoxy)cyclobutanecarboxylic Acid] | 30.8
3 | COc1ccc(CNc2oc3c(Cl)cccc3c(=O)c2I)cc1 [Example 42, 8-chloro-3-iodo-2-((4-methoxybenzyl)amino)-chromen-4-one] | 4.34
4 | O=c1cc(N2C3CCC2CC(O)C3)oc2c(Cl)cccc12 (centres unmarked) [Example 51, 8-chloro-2-(3-hydroxy-8-azabicyclo[3.2.1]octan-8-yl)-chromen-4-one] | 14.8
5 | O=c1c(I)c(-n2ccc(OCc3ccccc3)cc2=O)oc2c(Cl)cccc12 [Example 46, 4-benzyloxy-1-(8-chloro-3-iodo-4-oxo-chromen-2-yl)pyridin-2-one] | 9.66
6 | O=C(O)C1CC(OCCOc2ccc3c(c2)CN(c2cc(=O)c4cccc(Cl)c4o2)C3=O)C1 (centres unmarked) [Example 64, 3-(2-((2-(8-chloro-4-oxo-chromen-2-yl)-1-oxoisoindolin-5-yl)oxy)ethoxy)cyclobutanecarboxylic Acid] | 36.6
7 | COc1ccc2c(c1)C(=O)N(c1cc(=O)c3cccc(Cl)c3o1)C2 [Example 55, 2-(8-chloro-4-oxo-chromen-2-yl)-6-methoxyisoindolin-1-one] | 16.7
8 | O=c1cc(N2CC3(CC(O)C3)C2)oc2c(Cl)cccc12 [Example 47, 8-chloro-2-(6-hydroxy-2-azaspiro[3.3]heptan-2-yl)chromen-4-one] | 10.7
9 | O=c1cc(N2CCN(c3ccccc3)CC2)oc2c(Cl)cc(F)cc12 [Example 45, 8-chloro-6-fluoro-2-(4-phenylpiperazin-1-yl)-chromen-4-one] | 8.58
10 | O=C(c1cc(=O)c2cccc(Cl)c2o1)N1CCc2cccc(Cl)c2C1 [Example 28, 8-chloro-2-(8-chloro-3,4-dihydro-1H-isoquinoline-2-carbonyl)chromen-4-one] | 24.3
11 | O=C(O)C1CC(OCCOc2ccc3c(c2)CCN(c2cc(=O)c4cccc(Cl)c4o2)C3=O)C1 (centres unmarked) [Example 58, 3-(2-((2-(8-chloro-4-oxo-chromen-2-yl)-1-oxo-1,2,3,4-tetrahydroisoquinolin-6-yl)oxy)ethoxy)cyclobutanecarboxylic Acid] | 23.4
12 | COC(=O)c1cccc(C(=O)N2CC3(C2)CN(c2cc(=O)c4cccc(Cl)c4o2)C3)c1 [Example 63, Methyl 3-[6-(8-chloro-4-oxo-chromen-2-yl)-2,6-diazaspiro[3.3]heptane-2-carbonyl]benzoate] | 31.7
13 | COC(=O)c1ccc(CNC(=O)c2cc(=O)c3cccc(Cl)c3o2)cc1 [Example 26, Methyl 4-((8-chloro-4-oxo-chromene-2-carboxamido)methyl)benzoate] | 20.6
14 | O=c1cc(N2CCC(c3ccccc3)CC2)oc2c(Cl)cc(F)cc12 [Example 49, 8-chloro-6-fluoro-2-(4-phenylpiperidin-1-yl)-chromen-4-one] | 12.4
15 | O=C(O)CCCOc1cc(Cl)ccc1NC(=O)c1cc(=O)c2cc(Cl)cc(Cl)c2o1 [Example 11, 4-(5-chloro-2-(6,8-dichloro-4-oxo-chromene-2-carboxamido)phenoxy)butanoic Acid] | 3.12
16 | CN(Cc1ccc(OCCOC2CC(C(=O)O)C2)cc1)c1cc(=O)c2cccc(Cl)c2o1 (centres unmarked) [Example 56, 3-(2-(4-(((8-chloro-4-oxo-chromen-2-yl)(methyl)amino)methyl)phenoxy)ethoxy)cyclobutanecarboxylic acid] | 19.6
17 | COC(=O)c1cccc(COC2CC3CCC(C2)N3c2cc(=O)c3cccc(Cl)c3o2)c1 (centres unmarked) [Example 41, Methyl 3-(((8-(8-chloro-4-oxo-chromen-2-yl)-8-azabicyclo[3.2.1]octan-3-yl)oxy)methyl)benzoate] | 3.99
